# Experimental data reported in patent publication US6706663B2, “Herbicidal 3-heterocyclic substituted benzisothiazole and benzisoxazole compounds” (Wyeth, priority 2000, dated 2004).
# Columns and labels:
# [1] = system: IPOHE (Ipomoea hederacea); assay: Preemergence herbicidal evaluation; type: in vivo, (L.) Jacq.; details: preemergence, rated 4-5 weeks after treatment
# ORYSAT (Rice, Tebonnet) [2] = assay: Preemergence herbicidal evaluation; type: in vivo, Oryza sativa, (L.) Tebonnet; details: preemergence, rated 4-5 weeks after treatment
# [3] = system: GLXMAW (Soybean, Williams); assay: Postemergence herbicidal evaluation; type: in vivo, Glycine max, (L.) Merr. cv Williams
# In short: (§1)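 Seedlings grown for about two weeks were sprayed postemergence and then kept under standard greenhouse care. Injury was rated visually 4–5 weeks after treatment on a 0–9 scale against untreated controls, and ratings from repeat tests were averaged.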
# SETVI (Setaria viridis) [4] = assay: Postemergence herbicidal evaluation; type: in vivo, (L.) Beau
# In short: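 Seedlings about two weeks old were sprayed with compound in 50/50 acetone/water plus 0.5% TWEEN 20, at the equivalent of about 0.0040 to 1.000 kg/ha. Plants were kept in a greenhouse and visually rated 0-9 against a control four to five weeks after treatment. Repeat tests were averaged.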
# ZEAMX (Corn, Field) = assay: Postemergence herbicidal evaluation; type: in vivo, Zea mays, L.
# In short: as §1
# [5] = system: SAGPY (Sagittaria pygmaea); assay: Flooded paddy, preemergence weed control; type: in vivo, L.; details: rated 3-4 weeks after treatment, 0-9 rating scale
# In short: (§2)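 In this preemergence paddy assay, weed seeds or organs are sown at up to 0.5 cm in silt loam and covered by 1.5–3 cm of water for the full test period. After treatment the pots are kept in a greenhouse, and herbicidal effect is rated 0-9 visually against a control.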
# [6] = system: ABUTH (Abutilon theophrasti); assay: Postemergence herbicidal evaluation; type: in vivo, Medic.
# In short: as §1
# [7] = system: ECHORC (Echinochloa oryzoides); assay: Flooded paddy, preemergence weed control; type: in vivo, Echinochloa oryzoides (Ard.) Fritsch.; details: rated 3-4 weeks after treatment, 0-9 rating scale
# In short: as §2
# CYPIR (Cyperus iria) = assay: Flooded paddy, preemergence weed control; type: in vivo; details: rated 3-4 weeks after treatment, 0-9 rating scale
# In short: as §2
# [8] = system: ECHCG (Echinochloa crus-galli); assay: Preemergence herbicidal evaluation; type: in vivo, (L.) Beau; details: preemergence, rated 4-5 weeks after treatment
# In short: (§3)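 Seeds mixed with potting soil were planted atop about one inch of soil, then sprayed with test compound in aqueous acetone. Cups were kept in the greenhouse and rated visually 4–5 weeks after treatment on a 0–9 scale against untreated control.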
# SETVI (Setaria viridis) [9] = assay: Preemergence herbicidal evaluation; type: in vivo, (L.) Beau; details: preemergence, rated 4-5 weeks after treatment
# In short: as §3
# ORYSAT (Rice, Tebonnet) [10] = assay: Postemergence herbicidal evaluation; type: in vivo, Oryza sativa, (L.) Tebonnet
# In short: as §1
# [11] = system: ECHCG (Echinochloa crus-galli); assay: Postemergence herbicidal evaluation; type: in vivo, (L.) Beau
# In short: as §1
# GALAP (Galium aparine) = assay: Postemergence herbicidal evaluation; type: in vivo
# In short: as §1
# [12] = system: IPOHE (Ipomoea hederacea); assay: Postemergence herbicidal evaluation; type: in vivo, (L.) Jacq.
# In short: as §1
# [13] = system: MOOVA (Monochoria vaginalis); assay: Flooded paddy, preemergence weed control; type: in vivo, Presl.; details: rated 3-4 weeks after treatment, 0-9 rating scale
# In short: as §2
# [14] = system: AMBEL (Ambrosia artemisifolia); assay: Preemergence herbicidal evaluation; type: in vivo, L.; details: preemergence, rated 4-5 weeks after treatment
# In short: as §3
# [15] = system: CASOB (Cassia obtusifolia); assay: Preemergence herbicidal evaluation; type: in vivo, L.; details: preemergence, rated 4-5 weeks after treatment
# In short: as §3
# [16] = system: CHEAL (Chenopodium album); assay: Preemergence herbicidal evaluation; type: in vivo, L.; details: preemergence, rated 4-5 weeks after treatment
# In short: as §3
smiles,measurement,setting,value
"Cc1ccn(-c2nsc3ccc(-n4c(=O)cc(C(F)(F)F)n(C)c4=O)cc23)n1 [Compound 38, 1-methyl-3-[3-(3-methylpyrazol-1-yl)-1,2-benzisothiazol-5-yl]-6-(trifluoromethl)uracil]",IPOHE preemergence herbicidal rating,[1]; Rate 0.0620 kg/ha,0.0
same,IPOHE preemergence herbicidal rating,[1]; Rate 0.1250 kg/ha,0.0
same,IPOHE preemergence herbicidal rating,[1]; Rate 0.2500 kg/ha,6.0
same,ORYSAT preemergence herbicidal rating,"ORYSAT (Rice, Tebonnet) [2]; Rate 0.0620 kg/ha",4.0
same,ORYSAT preemergence herbicidal rating,"ORYSAT (Rice, Tebonnet) [2]; Rate 0.1250 kg/ha",5.0
same,ORYSAT preemergence herbicidal rating,"ORYSAT (Rice, Tebonnet) [2]; Rate 0.2500 kg/ha",7.0
same,"Postemergence herbicidal rating, GLXMAW",[3]; rate 0.0320 kg/ha,5.5
same,"Postemergence herbicidal rating, GLXMAW",[3]; rate 0.0620 kg/ha,7.0
same,"Postemergence herbicidal rating, SETVI",SETVI (Setaria viridis) [4]; rate 0.0320 kg/ha,0.0
same,"Postemergence herbicidal rating, SETVI",SETVI (Setaria viridis) [4]; rate 0.0620 kg/ha,3.0
same,"Postemergence herbicidal rating, ZEAMX","ZEAMX (Corn, Field); rate 0.0320 kg/ha",5.0
same,"Postemergence herbicidal rating, ZEAMX","ZEAMX (Corn, Field); rate 0.0620 kg/ha",5.5
same,"herbicidal rating, SAGPY",[5]; rate 0.0080 kg/ha,0.0
same,"herbicidal rating, SAGPY",[5]; rate 0.0320 kg/ha,4.5
same,"herbicidal rating, SAGPY",[5]; rate 0.1250 kg/ha,9.0
same,"Postemergence herbicidal rating, ABUTH",[6]; rate 0.0320 kg/ha,9.0
same,"Postemergence herbicidal rating, ABUTH",[6]; rate 0.0620 kg/ha,9.0
same,"herbicidal rating, ECHORC",[7]; rate 0.0080 kg/ha,0.0
same,"herbicidal rating, ECHORC",[7]; rate 0.0320 kg/ha,7.0
same,"herbicidal rating, ECHORC",[7]; rate 0.1250 kg/ha,9.0
same,"herbicidal rating, CYPIR",CYPIR (Cyperus iria); rate 0.0080 kg/ha,3.0
same,"herbicidal rating, CYPIR",CYPIR (Cyperus iria); rate 0.0320 kg/ha,9.0
same,"herbicidal rating, CYPIR",CYPIR (Cyperus iria); rate 0.1250 kg/ha,9.0
same,ECHCG preemergence herbicidal rating,[8]; Rate 0.0620 kg/ha,7.0
same,ECHCG preemergence herbicidal rating,[8]; Rate 0.1250 kg/ha,9.0
same,ECHCG preemergence herbicidal rating,[8]; Rate 0.2500 kg/ha,9.0
same,SETVI preemergence herbicidal rating,SETVI (Setaria viridis) [9]; Rate 0.0620 kg/ha,5.0
same,SETVI preemergence herbicidal rating,SETVI (Setaria viridis) [9]; Rate 0.1250 kg/ha,9.0
same,SETVI preemergence herbicidal rating,SETVI (Setaria viridis) [9]; Rate 0.2500 kg/ha,9.0
same,"Postemergence herbicidal rating, ORYSAT","ORYSAT (Rice, Tebonnet) [10]; rate 0.0320 kg/ha",2.5
same,"Postemergence herbicidal rating, ORYSAT","ORYSAT (Rice, Tebonnet) [10]; rate 0.0620 kg/ha",3.5
same,"Postemergence herbicidal rating, ECHCG",[11]; rate 0.0320 kg/ha,0.0
same,"Postemergence herbicidal rating, ECHCG",[11]; rate 0.0620 kg/ha,3.0
same,"Postemergence herbicidal rating, GALAP",GALAP (Galium aparine); rate 0.0320 kg/ha,0.0
same,"Postemergence herbicidal rating, GALAP",GALAP (Galium aparine); rate 0.0620 kg/ha,4.0
same,"Postemergence herbicidal rating, IPOHE",[12]; rate 0.0320 kg/ha,7.0
same,"Postemergence herbicidal rating, IPOHE",[12]; rate 0.0620 kg/ha,9.0
same,"herbicidal rating, MOOVA",[13]; rate 0.0080 kg/ha,3.0
same,"herbicidal rating, MOOVA",[13]; rate 0.0320 kg/ha,9.0
same,AMBEL preemergence herbicidal rating,[14]; Rate 0.0620 kg/ha,0.0
same,AMBEL preemergence herbicidal rating,[14]; Rate 0.1250 kg/ha,3.0
same,AMBEL preemergence herbicidal rating,[14]; Rate 0.2500 kg/ha,7.0
same,CASOB preemergence herbicidal rating,[15]; Rate 0.0620 kg/ha,0.0
same,CASOB preemergence herbicidal rating,[15]; Rate 0.1250 kg/ha,0.0
same,CASOB preemergence herbicidal rating,[15]; Rate 0.2500 kg/ha,0.0
same,CHEAL preemergence herbicidal rating,[16]; Rate 0.0620 kg/ha,9.0
same,CHEAL preemergence herbicidal rating,[16]; Rate 0.1250 kg/ha,9.0
same,CHEAL preemergence herbicidal rating,[16]; Rate 0.2500 kg/ha,9.0
